The subject of one assay is A. baumannii HUMC1. Kind of assay: MIC by broth microdilution (CLSI), carbapenem-resistant clinical isolate HUMC1. Type of assay: cell-based, Acinetobacter baumannii. The method, then:
(§1) Two A. baumannii isolates were used in this example: HUMC1 (BV374) (Spellberg/Luna Laboratory, University of Southern California, Los Angeles, Calif.) and UNT091-1 (BV378) (UNT Health Science Center, Fort Worth, Tex.). The HUMC1 isolate is a hyper-virulent drug-resistant clinical strain isolated from a blood-stream infection. […] The isolates were stored at −80° C. as 20% (v/v) glycerol cultures.
(§2) MICs were determined by the broth microdilution method following the guidelines of the Clinical Laboratory Standards Institute (CLSI) using RPMI supplemented with […] cationic-adjusted Muller Hinton broth (CA-MHB) as assay medium. To prepare the bacterial inocula, 3-5 colonies of bacterial strains from over-night growth on ChromAgar orientation plates (CHROMagar Cat. No. RT412) were suspended in 5 mL saline. The turbidity of the bacterial suspension was adjusted to 0.5 McFarland units (equal to an optical density at 610 nm (OD610) to 0.08-0.1). This suspension was diluted 200-fold in RPMI supplemented with 10% (v/v) FCS to reach a final concentration of […] colony forming units (CFU)/mL and was used to inoculate the microtiter plates.
(§3) Serial 2-fold dilutions of the antibiotics were prepared in a separate 96-well plate polypropylene U-bottom plate (Ratiolab Cat. No. 6018111) in RPMI supplemented with 10% (v/v) FCS at 10-fold of the final test concentrations and 10 μl of the dilutions were transferred to new 96-well polystyrene U-bottom microtiter plates with a parafilm plate cover.
(§4) The plates were then inoculated with 90 μL per well of the prepared bacterial suspensions in using a multichannel pipette (Eppendorf), with the first column containing 4 wells each for growth control (no antibiotic). […] The MIC was recorded as the lowest concentration of the compound that inhibited bacterial growth by visual inspection. MICs were determined at least in duplicates and in the case of variations, the higher values are provided.
For orientation: Broth dilution looks for growth in wells or tubes with falling amounts of substance.

Another assay has as its system A. baumannii UNT091. The assay can be described thus: MIC by broth microdilution (CLSI), carbapenem-resistant clinical isolate UNT091. The format is cell-based, Acinetobacter baumannii. How it is done:
as §1, §2, §3, §4

The test system of the next assay is A. baumannii ACC00445. The assay can be described thus: Neutropenic sepsis mouse model (CD-1 mice, IP infection). Particulars: IV at 1 h and 5 h post-infection, 10 mg/kg. The format is in vivo. The text has this: The CD-1 mice were IP infected with A. baumannii ACC00445 strain in the presence of […].
The mark [1] stands for this setting: Acinetobacter baumannii, HUMC1, HUMC1, CA-MHB (Table 1), read-out: MIC.
[2] abbreviates: Acinetobacter baumannii, HUMC1, HUMC1, RPMI plus 10% FCS (Table 1), read-out: MIC.
Where [3] appears, read: Acinetobacter baumannii, UNT091, UNT091, CA-MHB (Table 1), read-out: MIC.
Setting [4] is: Acinetobacter baumannii, UNT091, UNT091, RPMI plus 10% FCS (Table 1), read-out: MIC.

Values after ≈ are worked out from the molar mass of the structure shown. Read-outs that look alike come from different tables or passages of the source. Some results are limits rather than exact numbers.

Broadly, the MIC is the lowest concentration found to suppress growth. For the compound `CO/N=C(\C(=O)N[C@@H]1C(=O)N2C(C(=O)O)=C(COC(C)=O)CS[C@H]12)c1csc(N)n1` [cefotaxime], the MIC in the assay with A. baumannii HUMC1 (setting [1]), in the assay on A. baumannii HUMC1 (setting [2]), in the assay on A. baumannii UNT091 (setting [3]) and with A. baumannii UNT091 (setting [4]) was more than 64 µg/mL in each case.
In the case of gentamicin, the MIC against A. baumannii HUMC1 (HUMC1, CA-MHB (Table 1)) is more than 16 µg/mL; in the assay with A. baumannii HUMC1 (HUMC1, RPMI plus 10% FCS (Table 1)), more than 16 µg/mL; against A. baumannii UNT091 (UNT091, CA-MHB (Table 1)) it was more than 16 µg/mL; in the assay with A. baumannii UNT091 (UNT091, RPMI plus 10% FCS (Table 1)) it was more than 16 µg/mL.
As for `C[C@@H](O)[C@H]1C(=O)N2C(C(=O)O)=C(S[C@@H]3CN[C@H](C(=O)N(C)C)C3)[C@H](C)[C@H]12` [meropenem], the MIC in the assay with A. baumannii HUMC1 (setting [1]), with A. baumannii HUMC1 (setting [2]), in the assay with A. baumannii UNT091 (setting [3]) and in the assay with A. baumannii UNT091 (setting [4]) was more than 16 µg/mL in each case.
For `CO[C@H]1/C=C/O[C@@]2(C)Oc3c(C)c(O)c4c(O)c(c(/C=N/N5CCN(C)CC5)c(O)c4c3C2=O)NC(=O)/C(C)=C\C=C\[C@H](C)[C@H](O)[C@@H](C)[C@@H](O)[C@@H](C)[C@H](OC(C)=O)[C@@H]1C` [rifampin], the MIC amounted to 16 µg/mL (≈ 19.4 µM) with A. baumannii HUMC1 (setting [1]); 16 µg/mL in the assay on A. baumannii HUMC1 (setting [2]); 32 µg/mL in the assay on A. baumannii HUMC1 (Acinetobacter baumannii, HUMC1, HUMC1 parental strain, RPMI + 10% FCS (Table 2), read-out: MIC); 8 µg/mL (≈ 9.72 µM) in the assay on A. baumannii UNT091 (setting [3]); 16 µg/mL with A. baumannii UNT091 (setting [4]); 2 µg/mL with A. baumannii UNT091 (Acinetobacter baumannii, UNT091, UNT091 parental strain, RPMI + 10% FCS (Table 2), read-out: MIC). Further, the protection against sepsis entry in the assay on A. baumannii ACC00445 is “does not”.
